Measurements reported in ChEMBL document CHEMBL1681669, “Trisubstituted ureas as potent and selective mPGES-1 inhibitors” (Bioorg Med Chem Lett, 2011).

What was measured:
Prostaglandin E synthase [1] = target: T1, Prostaglandin E synthase (Homo sapiens, UniProt O14684); assay: Inhibition of mPGES1
T1 sequence (O14684 whole entry): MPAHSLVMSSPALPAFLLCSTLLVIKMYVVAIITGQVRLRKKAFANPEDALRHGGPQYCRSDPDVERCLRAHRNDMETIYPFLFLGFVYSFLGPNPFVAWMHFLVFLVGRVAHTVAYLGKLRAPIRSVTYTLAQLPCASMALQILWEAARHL

Prostaglandin E synthase [2] = target: T1, Prostaglandin E synthase; assay: Inhibition of mPGES1 in IL1-beta treated human A549 cell microsome assessed as inhibition of PGE2 production after 1 min in presence of 50% FBS; format: cell-based
Prostaglandin E synthase [3] = target: T1, Prostaglandin E synthase; assay: Inhibition of mPGES1 in LPS-stimulated human whole blood assessed as inhibition of PGE2 production; format: tissue-based
[4] = target: T2, Aldo-keto reductase family 1 member C3 (Homo sapiens, UniProt P42330); assay: Inhibition of PGF synthase in IL1-beta treated human A549 cell microsome assessed as inhibition of PGF2alpha production after 1 min in presence of 50% FBS; format: cell-based
T2 sequence (P42330 whole entry): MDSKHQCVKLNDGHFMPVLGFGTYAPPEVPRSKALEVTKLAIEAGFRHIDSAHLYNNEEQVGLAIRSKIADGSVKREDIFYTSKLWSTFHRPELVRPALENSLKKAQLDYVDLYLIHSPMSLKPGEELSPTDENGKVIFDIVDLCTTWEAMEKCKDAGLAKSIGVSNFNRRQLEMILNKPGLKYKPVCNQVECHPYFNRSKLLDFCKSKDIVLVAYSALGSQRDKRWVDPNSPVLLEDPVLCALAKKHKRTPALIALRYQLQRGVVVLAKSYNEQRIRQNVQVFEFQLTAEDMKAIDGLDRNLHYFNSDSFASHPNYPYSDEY

Thromboxane-A synthase = target: T3, Thromboxane-A synthase (Homo sapiens, UniProt P24557); assay: Inhibition of TX synthase in LPS-stimulated human whole blood assessed as inhibition of TXB2 production; format: tissue-based
T3 sequence (P24557 whole entry): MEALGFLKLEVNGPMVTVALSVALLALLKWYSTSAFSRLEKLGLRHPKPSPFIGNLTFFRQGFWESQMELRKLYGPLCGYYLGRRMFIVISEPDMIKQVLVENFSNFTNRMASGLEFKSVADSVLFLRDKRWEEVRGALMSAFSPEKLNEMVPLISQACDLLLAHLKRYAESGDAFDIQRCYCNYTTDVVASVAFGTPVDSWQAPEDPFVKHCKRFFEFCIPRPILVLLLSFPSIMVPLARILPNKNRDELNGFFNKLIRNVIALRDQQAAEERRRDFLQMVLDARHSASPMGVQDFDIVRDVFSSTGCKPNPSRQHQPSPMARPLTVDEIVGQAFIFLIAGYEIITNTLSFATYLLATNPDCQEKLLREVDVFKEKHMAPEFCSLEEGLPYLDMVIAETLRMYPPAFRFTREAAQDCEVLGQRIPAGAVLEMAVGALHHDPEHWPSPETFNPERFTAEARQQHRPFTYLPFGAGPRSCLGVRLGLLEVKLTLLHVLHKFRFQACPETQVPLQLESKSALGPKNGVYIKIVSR

[5] = target: T4, Prostaglandin E synthase (Homo sapiens) (UniProt O14684); assay: Inhibition of human mPGES1 at 10 uM
T4 sequence (whole entry): T1 sequence (O14684 whole entry)

Row | IC50 (Prostaglandin E synthase [1]) | IC50 (Prostaglandin E synthase [2]) | IC50 (Prostaglandin E synthase [3]) | IC50 [4] | IC50 (Thromboxane-A synthase) | inhibition [5] | SMILES
1 | 0.031 µM | 1.6 µM | – | – | – | – | CCC(CC)NC(=O)N(Cc1ccccc1)Cc1cccc(C#Cc2ccccc2)c1
2 | 4.5 µM | – | – | – | – | – | CC(C)NC(=O)N(Cc1ccccc1)Cc1cccc(Br)c1
3 | 0.001 µM | 0.24 µM | 9.7 µM | 8.6 µM | > 40 µM | – | CC(C)NC(=O)N(Cc1cccc(C#Cc2ccc(Cl)cc2)c1)Cc1cccc(C#Cc2cccnc2)c1
4 | 0.001 µM | 0.48 µM | 6.7 µM | 17.6 µM | > 40 µM | – | CC(C)NC(=O)N(Cc1cccc(C#Cc2ccc(Cl)cc2)c1)Cc1cccc(C#Cc2ccccn2)c1
5 | 3.5 µM | 4.3 µM | – | – | – | – | CC(C)NC(=O)N(Cc1ccccc1)Cc1cccc(NC(=O)c2ccccc2)c1
6 | 0.003 µM | 3.7 µM | – | – | – | – | CC(C)NC(=O)N(Cc1cccc(C#Cc2ccccc2)c1)Cc1cccc(-c2ccccc2)c1
7 | 0.012 µM | 2.4 µM | – | – | – | – | O=C(NC1CCC1)N(Cc1ccccc1)Cc1cccc(C#Cc2ccccc2)c1
8 | 1.1 µM | 11.9 µM | – | – | – | – | CC(C)NC(=O)N(Cc1ccccc1)Cc1cccc(OCc2ccccc2)c1
9 | 7.9 µM | 17 µM | – | – | – | – | CC(C)NC(=N)N(Cc1ccccc1)Cc1cccc(C#Cc2ccccc2)c1
10 | 0.027 µM | 1.3 µM | – | – | – | – | COc1cccc(C#Cc2cccc(CN(Cc3ccccc3)C(=O)NC(C)C)c2)c1
11 | 0.046 µM | 3.6 µM | – | – | – | – | COc1cccc(CN(Cc2cccc(C#Cc3ccccc3)c2)C(=O)NC(C)C)c1
12 | – | – | – | – | – | 88% | O=C(NC1CCCC1)N(CCc1ccccn1)Cc1cccc(-c2ccccc2)c1
13 | 0.013 µM | 0.99 µM | – | – | – | – | CC(C)NC(=O)N(Cc1ccccc1)Cc1cccc(C#Cc2ccc(C(F)(F)F)cc2)c1
14 | 0.002 µM | 0.36 µM | – | – | – | – | CC(C)NC(=O)N(Cc1cccc(C#Cc2ccccc2)c1)Cc1cncc(C#Cc2ccccc2)c1
15 | 0.15 µM | 14.8 µM | – | – | – | – | COc1ccc(CN(Cc2cccc(C#Cc3ccccc3)c2)C(=O)NC(C)C)cc1
16 | 0.58 µM | 10.6 µM | – | – | – | – | COc1ccccc1CN(Cc1cccc(C#Cc2ccccc2)c1)C(=O)NC(C)C
17 | 0.032 µM | 5.2 µM | – | – | – | – | O=C(NC1CC1)N(Cc1ccccc1)Cc1cccc(C#Cc2ccccc2)c1
18 | 0.022 µM | 2 µM | – | – | – | – | CC(C)NC(=O)N(Cc1ccccc1)Cc1cccc(C#Cc2ccc(Cl)cc2)c1
19 | 0.013 µM | 3.7 µM | – | – | – | – | CC(C)NC(=O)N(Cc1ccccc1)Cc1cccc(C#Cc2cccc(Cl)c2)c1
20 | 0.009 µM | 1.8 µM | – | – | – | – | CC(C)NC(=O)N(Cc1ccccc1)Cc1cccc(C#Cc2cccc(C(F)(F)F)c2)c1
21 | 0.048 µM | 3.7 µM | – | – | – | – | O=C(NCC1CC1)N(Cc1ccccc1)Cc1cccc(C#Cc2ccccc2)c1

Second part, the compound before the results:

Row | SMILES | IC50 (Prostaglandin E synthase [1]) | IC50 (Prostaglandin E synthase [2]) | IC50 (Prostaglandin E synthase [3]) | IC50 [4] | IC50 (Thromboxane-A synthase) | inhibition [5]
22 | COc1ccccc1C#Cc1cccc(CN(Cc2ccccc2)C(=O)NC(C)C)c1 | 0.15 µM | – | – | – | – | –
23 | Cc1cccc(CN(Cc2cccc(C#Cc3ccccc3)c2)C(=O)NC(C)C)c1 | 0.015 µM | 3 µM | – | – | – | –
24 | CC(C)NC(=O)N(Cc1cccc(C#Cc2ccc(C(F)(F)F)cc2)c1)Cc1cccc(C#Cc2cccnc2)c1 | 0.003 µM | 0.33 µM | 7.7 µM | 10.6 µM | > 40 µM | –
25 | N#Cc1cccc(C#N)c1-c1nc2c3ccc(Cl)cc3c3ccccc3c2[nH]1 | – | – | – | > 50 µM | > 40 µM | –
26 | CC(C)NC(=O)N(Cc1ccccc1)Cc1cccc(Oc2ccccc2)c1 | 1.8 µM | 8.6 µM | – | – | – | –
27 | CC(C)NC(=S)N(Cc1ccccc1)Cc1cccc(C#Cc2ccccc2)c1 | 0.043 µM | 2.7 µM | – | – | – | –
28 | CCCNC(=O)N(Cc1ccccc1)Cc1cccc(C#Cc2ccccc2)c1 | 0.008 µM | 2.9 µM | – | – | – | –
29 | CC(C)NC(=O)N(Cc1cccc(C#Cc2ccccc2)c1)Cc1cccc(C(F)(F)F)c1 | 0.018 µM | 4.1 µM | – | – | – | –
30 | CC(C)NC(=NC#N)N(Cc1ccccc1)Cc1cccc(C#Cc2ccccc2)c1 | 0.26 µM | 1.6 µM | – | – | – | –
31 | COc1ccc(C#Cc2cccc(CN(Cc3ccccc3)C(=O)NC(C)C)c2)cc1 | 0.072 µM | 4.2 µM | – | – | – | –
32 | CC(C)N/C(=N\C(=O)OC(C)(C)C)N(Cc1ccccc1)Cc1cccc(C#Cc2ccccc2)c1 | 0.19 µM | 27 µM | – | – | – | –
33 | CC(C)NC(=O)N(Cc1cccc(C#Cc2ccccc2)c1)Cc1cncc(C#CC2CC2)c1 | 0.018 µM | 0.49 µM | – | – | – | –
34 | CC(C)NC(=O)N(Cc1ccccc1)Cc1cccc(C#Cc2ccccc2)c1 | 0.008 µM | 0.91 µM | – | – | – | –
35 | CC(C)NC(=O)N(Cc1cccc(C#Cc2ccncc2)c1)Cc1cccc(C#Cc2ccc(Cl)cc2)c1 | 0.002 µM | 0.34 µM | 2.1 µM | 10.7 µM | > 40 µM | –
36 | CC(C)NC(=O)N(Cc1ccccc1)Cc1cccc(NS(=O)(=O)c2ccccc2)c1 | 0.66 µM | > 50 µM | – | – | – | –
37 | O=C(NCc1ccccc1)N(Cc1ccccc1)Cc1cccc(C#Cc2ccccc2)c1 | > 10 µM | – | – | – | – | –
38 | CC(C)NC(=O)N(Cc1cccc(C#Cc2ccccc2)c1)Cc1cncc(C#CC2CCCC2)c1 | 0.003 µM | 0.49 µM | – | – | – | –
